Source: PubChem BioAssay AID248 (DTP/NCI, 2004)
Values joined by “and” are separate entries in the source; they are usually repeats but may differ in a detail not shown here. Identical values can stand only once. Inconclusive results and toxic doses are left out.

Test system: L1210 leukemia ip in BDF1 mice, survival T/C
Experiment: NCI In Vivo Anticancer Drug Screen. Data for tumor model L1210 Leukemia (intraperitoneal) in B6D2F1 (BDF1) mice
Details: endpoint: mean survival time, higher = longer survival
Outline: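 Transplanted-tumor mice were given test agent; controls received vehicle only. Survival readings from the two groups were divided (treated over control).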

[1] = dose: 100.0 mg/kg/injection, schedule: Q04DX002 (ip), vehicle: Klucel (hydroxypropylcellulose) (HPC)
[2] = dose: 200.0 mg/kg/injection, schedule: Q04DX002 (ip), vehicle: Klucel (hydroxypropylcellulose) (HPC)
[3] = dose: 100.0 mg/kg/injection, schedule: Q01DX001 (ip), vehicle: saline
[4] = dose: 400.0 mg/kg/injection, schedule: Q01DX001 (ip), vehicle: saline
[5] = dose: 100.0 mg/kg/injection, schedule: Q01DX009 (ip), vehicle: saline
[6] = dose: 100.0 mg/kg/injection, schedule: Q04DX003 (ip), vehicle: saline
[7] = dose: 200.0 mg/kg/injection, schedule: Q01DX009 (ip), vehicle: saline
[8] = dose: 200.0 mg/kg/injection, schedule: Q04DX003 (ip), vehicle: saline
[9] = dose: 400.0 mg/kg/injection, schedule: Q01DX009 (ip), vehicle: saline
[10] = dose: 400.0 mg/kg/injection, schedule: Q04DX003 (ip), vehicle: saline
[11] = dose: 100.0 mg/kg/injection, schedule: Q01DX001 (ip), vehicle: carboxymethylcellulose (CMC)
[12] = dose: 400.0 mg/kg/injection, schedule: Q01DX001 (ip), vehicle: carboxymethylcellulose (CMC)
[13] = dose: 400.0 mg/kg/injection, schedule: Q04DX002 (ip), vehicle: saline with Tween-80
[14] = dose: 200.0 mg/kg/injection, schedule: Q01DX001 (ip), vehicle: saline
[15] = dose: 100.0 mg/kg/injection, schedule: Q01DX009 (ip), vehicle: Klucel (hydroxypropylcellulose) (HPC)
[16] = dose: 200.0 mg/kg/injection, schedule: Q01DX009 (ip), vehicle: Klucel (hydroxypropylcellulose) (HPC)
[17] = dose: 100.0 mg/kg/injection, schedule: Q04DX003 (ip), vehicle: saline with Tween-80
[18] = dose: 100.0 mg/kg/injection, schedule: Q01DX001 (ip), vehicle: Klucel (hydroxypropylcellulose) (HPC)

## CCCCC(CCCC)NCC(C)OC(=O)c1ccc(N)cc1 (stereo unspecified)
dose: 9.5 mg/kg/injection, schedule: Q01DX001 (ip), vehicle: other
  T/C: 100 % of control
dose: 19.0 mg/kg/injection, schedule: Q01DX001 (ip), vehicle: other
  T/C: 105 % of control
dose: 38.0 mg/kg/injection, schedule: Q01DX001 (ip), vehicle: other
  T/C: 96 % of control
dose: 75.0 mg/kg/injection, schedule: Q01DX001 (ip), vehicle: other
  T/C: 92 % of control

## CCOC(=O)N1CCC2(CC1)CC(=O)N(N1CCCCCC1)C2=O
[1]
  T/C: 93 % of control
[2]
  T/C: 93 % of control

## CC1(/C=N\NC(=O)CCCC(=O)N/N=C/C2(C)CCC=CO2)CCC=CO1 (stereo unspecified)
[3]
  T/C: 92 % of control
[4]
  T/C: 97 % of control

## COC(=O)C(C)NCc1ccccc1 (stereo unspecified)
[5]
  T/C: 95 % of control
[6]
  T/C: 107 % of control
[7]
  T/C: 100 % of control
[8]
  T/C: 107 % of control
[9]
  T/C: 100 % of control
[10]
  T/C: 102 % of control

## CC(CC(=O)OCC(F)(F)C(F)(F)C(F)(F)C(F)F)CC(=O)OCC(F)(F)C(F)(F)C(F)(F)C(F)F
dose: 50.0 mg/kg/injection, schedule: Q01DX001 (ip), vehicle: carboxymethylcellulose (CMC)
  T/C: 96 % of control
[11]
  T/C: 100 % of control
dose: 200.0 mg/kg/injection, schedule: Q01DX001 (ip), vehicle: carboxymethylcellulose (CMC)
  T/C: 96 % of control
[12]
  T/C: 91 % of control

## CC(C)(CCC#N)C1OCCO1
[5]
  T/C: 106 % of control
[6]
  T/C: 98 % of control
[7]
  T/C: 102 % of control
[8]
  T/C: 105 % of control
[9]
  T/C: 102 % of control
[10]
  T/C: 96 % of control

## Cc1ccc2ccc(/C=N/Nc3ccc4cccc(O)c4n3)c(O)c2n1
[11]
  T/C: 88 % of control
[12]
  T/C: 88 % of control

## OCC(O)C(O)C(O)C(O)CN=Cc1ccccc1O (stereo unspecified)
dose: 100.0 mg/kg/injection, schedule: Q04DX002 (ip), vehicle: saline with Tween-80
  T/C: 109 % of control
dose: 200.0 mg/kg/injection, schedule: Q04DX002 (ip), vehicle: saline with Tween-80
  T/C: 95 % of control
[13]
  T/C: 103 % of control

## O=C(OCC1OC(n2cnc3c(=S)nc[nH]c32)C(OC(=O)c2ccc(Cl)cc2)C1OC(=O)c1ccc(Cl)cc1)c1ccc(Cl)cc1 (stereo unspecified)
[3]
  T/C: 104 % of control
[5]
  T/C: 122 % of control
[14]
  T/C: 101 % of control
[4]
  T/C: 113 % of control
dose: 800.0 mg/kg/injection, schedule: Q01DX009 (ip), vehicle: saline
  T/C: 166 % of control

## O=C1CCN(S(=O)(=O)c2ccccc2)c2ccccc21
[3]
  T/C: 94 % of control
[14]
  T/C: 94 % of control
[4]
  T/C: 92 % of control

## CCN(C(=O)Nc1ccc(SC)cc1)c1ccccc1
[15]
  T/C: 103 % of control
[16]
  T/C: 108 % of control

## FC(F)C(F)(F)C(F)(F)C(F)(F)C(F)(F)C(F)(F)COc1nc(OCC(F)(F)C(F)(F)C(F)(F)C(F)(F)C(F)(F)C(F)F)nc(OCC(F)(F)C(F)(F)C(F)(F)C(F)(F)C(F)(F)C(F)F)n1
dose: 25.6 mg/kg/injection, schedule: Q04DX002 (ip), vehicle: saline with Tween-80
  T/C: 97 % of control
dose: 50.0 mg/kg/injection, schedule: Q01DX009 (ip), vehicle: saline with Tween-80
  T/C: 89 % of control
dose: 64.0 mg/kg/injection, schedule: Q04DX002 (ip), vehicle: saline with Tween-80
  T/C: 91 % of control
dose: 100.0 mg/kg/injection, schedule: Q01DX009 (ip), vehicle: saline with Tween-80
  T/C: 92 % of control
[17]
  T/C: 91 % of control
dose: 160.0 mg/kg/injection, schedule: Q04DX002 (ip), vehicle: saline with Tween-80
  T/C: 97 % of control
dose: 200.0 mg/kg/injection, schedule: Q01DX009 (ip), vehicle: saline with Tween-80
  T/C: 90 % of control
dose: 200.0 mg/kg/injection, schedule: Q04DX003 (ip), vehicle: saline with Tween-80
  T/C: 86 % of control
[13]
  T/C: 91 % of control
dose: 400.0 mg/kg/injection, schedule: Q04DX003 (ip), vehicle: saline with Tween-80
  T/C: 87 % of control

## NC(=O)C1=CN(Cc2ccc(F)cc2)c2ccccc2C1
dose: 100.0 mg/kg/injection, schedule: Q04DX003 (ip), vehicle: other
  T/C: 107 % of control
dose: 200.0 mg/kg/injection, schedule: Q04DX003 (ip), vehicle: other
  T/C: 94 % of control
dose: 400.0 mg/kg/injection, schedule: Q04DX003 (ip), vehicle: other
  T/C: 102 % of control

## NC(=O)c1cn[nH]c1N1CC[N+](CCCl)=N1
dose: 50.0 mg/kg/injection, schedule: Q01DX009 (ip), vehicle: saline
  T/C: 93 % of control
[5]
  T/C: 103 % of control
[6]
  T/C: 103 % of control
[7]
  T/C: 108 % of control
[8]
  T/C: 97 % of control

## O=C(Nc1cccc(C(F)(F)F)c1)Nc1ccc(Cl)cc1Cl
[18]
  T/C: 96 % of control
[15]
  T/C: 95 % of control and 108 % of control
[1]
  T/C: 95 % of control and 100 % of control
dose: 100.0 mg/kg/injection, schedule: Q04DX003 (ip), vehicle: Klucel (hydroxypropylcellulose) (HPC)
  T/C: 86 % of control
dose: 200.0 mg/kg/injection, schedule: Q01DX001 (ip), vehicle: Klucel (hydroxypropylcellulose) (HPC)
  T/C: 91 % of control
[16]
  T/C: 94 % of control and 104 % of control
[2]
  T/C: 100 % of control and 88 % of control
dose: 200.0 mg/kg/injection, schedule: Q04DX003 (ip), vehicle: Klucel (hydroxypropylcellulose) (HPC)
  T/C: 94 % of control
dose: 400.0 mg/kg/injection, schedule: Q01DX001 (ip), vehicle: Klucel (hydroxypropylcellulose) (HPC)
  T/C: 93 % of control
dose: 400.0 mg/kg/injection, schedule: Q01DX009 (ip), vehicle: Klucel (hydroxypropylcellulose) (HPC)
  T/C: 95 % of control and 97 % of control
dose: 400.0 mg/kg/injection, schedule: Q04DX002 (ip), vehicle: Klucel (hydroxypropylcellulose) (HPC)
  T/C: 98 % of control and 104 % of control
dose: 400.0 mg/kg/injection, schedule: Q04DX003 (ip), vehicle: Klucel (hydroxypropylcellulose) (HPC)
  T/C: 92 % of control

## Clc1ccc(OCc2sc3ccc(Cl)cc3c2CN2CCCCC2)cc1
dose: 25.0 mg/kg/injection, schedule: Q04DX003 (ip), vehicle: saline with Tween-80
  T/C: 88 % of control
dose: 50.0 mg/kg/injection, schedule: Q04DX003 (ip), vehicle: saline with Tween-80
  T/C: 87 % of control
[17]
  T/C: 90 % of control and 92 % of control

## COCCOC(C)C(=O)C(O)S(=O)(=O)O (stereo unspecified)
dose: 500.0 mg/kg/injection, schedule: Q01DX Z (oral), vehicle: saline
  T/C: 86 % of control
dose: 1000.0 mg/kg/injection, schedule: Q01DX Z (oral), vehicle: saline
  T/C: 87 % of control

## Nc1ccc(C(=O)O)cc1S(=O)(=O)O
[18]
  T/C: 102 % of control

## Nc1cccc(OCCCOc2cccc(N)c2)c1
dose: 50.0 mg/kg/injection, schedule: Q01DX009 (ip), vehicle: Klucel (hydroxypropylcellulose) (HPC)
  T/C: 96 % of control
[15]
  T/C: 101 % of control
[16]
  T/C: 90 % of control

## Nc1nc(SSc2nc(N)nc3c2ncn3C2CC(O)C(CO)O2)c2ncn(C3CC(O)C(CO)O3)c2n1 (stereo unspecified)
dose: 1.0 mg/kg/injection, schedule: Q01DX009 (ip), vehicle: saline
  T/C: 212 % of control
dose: 2.0 mg/kg/injection, schedule: Q01DX009 (ip), vehicle: saline
  T/C: 223 % of control
dose: 75.0 mg/kg/injection, schedule: Q01DX001 (ip), vehicle: saline
  T/C: 100 % of control
dose: 119.0 mg/kg/injection, schedule: Q01DX009 (ip), vehicle: saline
  T/C: 118 % of control
dose: 178.0 mg/kg/injection, schedule: Q01DX009 (ip), vehicle: saline
  T/C: 116 % of control
dose: 267.0 mg/kg/injection, schedule: Q01DX001 (ip), vehicle: saline
  T/C: 168 % of control
dose: 267.0 mg/kg/injection, schedule: Q01DX009 (ip), vehicle: saline
  T/C: 88 % of control
[4]
  T/C: 157 % of control and 178 % of control
dose: 600.0 mg/kg/injection, schedule: Q01DX001 (ip), vehicle: saline
  T/C: 201 % of control
dose: 31.3 micrograms/kg/injection, schedule: Q01DX009 (ip), vehicle: saline
  T/C: 96 % of control
dose: 62.5 micrograms/kg/injection, schedule: Q01DX009 (ip), vehicle: saline
  T/C: 109 % of control
dose: 125.0 micrograms/kg/injection, schedule: Q01DX009 (ip), vehicle: saline
  T/C: 112 % of control
dose: 250.0 micrograms/kg/injection, schedule: Q01DX009 (ip), vehicle: saline
  T/C: 109 % of control
